Measurements reported in PubChem BioAssay (NCI).
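Step 1: Grow cells in 96-well plates. Step 2: Expose to compound for 48 hours at 5 concentrations. Step 3: Interpolate endpoints linearly; if unreached, use highest concentration. GI50 = concentration required for 50% inhibition of growth. At the TGI there is no net growth.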

How the values were obtained:
Assay in all cases: NCI tumour cell line growth inhibition, 48 h
[1] = test system: HOP-92 NSCLC
[2] = test system: SK-OV-3 ovarian
[3] = test system: IGROV1 ovarian
[4] = test system: OVCAR-3 ovarian
[5] = test system: SR leukemia
[6] = test system: OVCAR-5 ovarian
[7] = test system: HCC-2998 colon
[8] = test system: SW-620 colon
[9] = test system: MCF7 breast
[10] = test system: HS 578T breast

Row | Compound | TGI [1] | TGI [2] | TGI [3] | TGI [4] | TGI [5] | TGI [6] | TGI [7] | TGI [8] | GI50 [1] | GI50 [2] | GI50 [3] | GI50 [9] | TGI [9] | GI50 [4] | GI50 [6] | GI50 [7] | GI50 [8] | GI50 [10] | TGI [10] | GI50 [5]
1 | Cc1cc([N+](=O)[O-])c(S(=O)(=O)c2ccccc2)c([N+](=O)[O-])c1 | 5.28 µM | 74.7 µM | 31.1 µM | 11.4 µM | > 100 µM | 33.6 µM | 35.7 µM | 10.1 µM |  |  |  |  |  |  |  |  |  |  |  | 
2 | COc1ccc(C2ONC3=NCCN32)cc1 (stereo unspecified) | > 100 µM | > 100 µM | > 100 µM | > 100 µM |  | > 100 µM | > 100 µM | > 100 µM | 40.8 µM | 40.7 µM | 73.2 µM | 61.1 µM | > 100 µM | 35.2 µM | > 100 µM | 49.7 µM | 46.8 µM |  |  | 
3 | NS(=O)(=O)c1ccc(NC(=O)c2cccn3c(=O)c4ccccc4nc23)cc1 | > 100 µM | > 100 µM | > 100 µM | > 100 µM | > 100 µM |  |  | > 100 µM |  |  |  |  |  |  |  |  |  |  |  | 
4 | CCN(CC)CCOc1ccc(/C=C2\CC3C4CC=C5C[C@@H](OC(C)=O)CC[C@]5(C)C4CC[C@]3(C)C2=O)cc1OC (stereo partly specified) | 37.7 µM | 95.1 µM | 16.4 µM | 3.45 µM |  | 12.4 µM | 14.1 µM |  | 13.3 µM | 29.5 µM | 4.65 µM |  |  | 1.78 µM | 3.38 µM | 3.74 µM |  | 7.77 µM | 25.7 µM | 
5 | C=CC1=CC(C)C[C@]1(O)C(=O)OC (stereo partly specified) |  | > 100 µM |  |  | > 100 µM |  |  |  | > 100 µM |  | > 100 µM |  |  | > 100 µM | > 100 µM | > 100 µM | < 0.01 µM |  |  | 
6 | COC(=O)c1cc2c3c(ccc2[nH]1)N(C(=O)c1cc2c4c(ccc2[nH]1)N(C(=O)c1cc2c5c(ccc2[nH]1)N(C(N)=O)CC5)CC4)CC3 | 7.31 µM | 8.02 µM | 20.5 µM | > 28.9 µM | > 100 µM | > 100 µM | > 100 µM | > 100 µM |  |  |  |  |  |  |  |  |  |  |  | 
7 | c1cnc2[nH]cc(-c3csc(-c4cn(CCCN5CCCCC5)c5ccccc45)n3)c2c1 | 2.88 µM | 3.36 µM |  | 2.96 µM | 3.74 µM | 3.11 µM |  |  | 1.36 µM | 1.8 µM |  |  |  | 1.54 µM | 1.63 µM |  |  | 2.34 µM | 7.22 µM | 1.89 µM
8 | O=C(/C=C/c1cn(-c2ccccc2)nc1-c1ccc([N+](=O)[O-])cc1)c1ccc(Cl)cc1 | 70.1 µM | > 77.3 µM | > 100 µM |  | > 100 µM | > 100 µM | > 100 µM |  | 3.36 µM | 7.83 µM | 3.54 µM |  |  |  | > 100 µM | > 100 µM |  | 1.92 µM | 5.64 µM | 2.76 µM
9 | CCCCCCCCCC(=O)Oc1cccc2onc(C)c12 | > 100 µM | > 100 µM | > 100 µM | > 100 µM | > 100 µM | > 100 µM | > 100 µM | > 100 µM |  |  |  |  |  |  |  |  |  |  |  | 
10 | CC[P+]1(CC)CCCC1 |  | > 100 µM | > 100 µM | > 100 µM |  | > 100 µM | > 100 µM | > 100 µM |  |  |  |  |  |  |  |  |  |  |  | 
11 | CC1(C)OC(COCCOCCCCCO)C(COCCOCCCCCO)O1 (stereo unspecified) |  | > 100 µM | > 100 µM | > 100 µM | > 100 µM | > 100 µM | > 100 µM | > 100 µM |  |  |  |  |  |  |  |  |  |  |  | 
12 | c1ccc(OCCSCCCCCCCCCCSCCOc2ccccc2)cc1 |  | > 100 µM | > 100 µM | > 100 µM |  | > 100 µM | > 100 µM | > 100 µM |  |  |  |  |  |  |  |  |  |  |  | 
13 | CC1=C(C(=O)CC(=O)C(=O)NC2C3CC4CC(C3)CC2C4)Sc2ccccc2N1 (stereo unspecified) | > 100 µM | > 31.6 µM | > 100 µM | > 100 µM |  | > 100 µM | > 100 µM | > 100 µM |  |  |  |  |  |  |  |  |  |  |  | 
14 | COC(=O)C1(F)C(=O)NC(=O)NC1OC (stereo unspecified) | > 100 µM | > 100 µM | > 100 µM | > 100 µM | > 100 µM | > 100 µM |  | > 100 µM |  |  |  |  |  |  |  |  |  |  |  | 
15 | O=C(O)[C@@H]1CCCC[C@@H]1C(=O)N(C1CCCCC1)C1CCCCC1 | > 100 µM | > 100 µM | > 100 µM | > 100 µM | > 100 µM | > 100 µM | > 100 µM | > 100 µM |  |  |  |  |  |  |  |  |  |  |  | 
16 | CCOC1=C2NC(Cc3ccc(F)cc3)=NC2C(=O)c2ccccc21 (stereo unspecified) | 51.6 µM | > 100 µM | > 100 µM | > 100 µM |  | > 100 µM | > 100 µM |  |  |  |  |  |  |  |  |  |  |  |  | 
